Read-outs that look alike come from different tables or passages of the source.
Experiments:
Assay in all cases: Kinase profiling, 33P ATP filter binding assay
Assay type in all cases: biochemical
[1] = target: BRSK1 (Homo sapiens (Human), UniProt Q8TDC3); settings: 1 micromolar inhibitor concentration, read-out: percentage inhibition
[2] = target: MKK1 (Homo sapiens (Human), UniProt Q02750); settings: 1 micromolar inhibitor concentration, read-out: percentage inhibition
[3] = target: PAK2 (Homo sapiens (Human), UniProt Q13177); settings: 1 micromolar inhibitor concentration, read-out: percentage inhibition
[4] = target: PAK5 (Homo sapiens (Human), UniProt Q9P286); settings: 1 micromolar inhibitor concentration, read-out: percentage inhibition
[5] = target: EPH-B4 (Homo sapiens (Human), UniProt P54760); settings: 1 micromolar inhibitor concentration, read-out: percentage inhibition
[6] = target: PLK1 (Homo sapiens (Human), UniProt P53350); settings: 1 micromolar inhibitor concentration, read-out: percentage inhibition
[7] = target: MLK3 (Homo sapiens (Human), UniProt Q16584); settings: 1 micromolar inhibitor concentration, read-out: percentage inhibition
[8] = target: MARK3 (Homo sapiens (Human), UniProt P27448); settings: 1 micromolar inhibitor concentration, read-out: percentage inhibition
[9] = target: CK1y2 (Homo sapiens (Human), UniProt P78368); settings: 1 micromolar inhibitor concentration, read-out: percentage inhibition
[10] = target: NEK2a (Homo sapiens (Human), UniProt P51955); settings: 1 micromolar inhibitor concentration, read-out: percentage inhibition
[11] = target: BTK (Homo sapiens (Human), UniProt Q06187); settings: 1 micromolar inhibitor concentration, read-out: percentage inhibition
BTK, sequence (Q06187 whole entry, species assumed): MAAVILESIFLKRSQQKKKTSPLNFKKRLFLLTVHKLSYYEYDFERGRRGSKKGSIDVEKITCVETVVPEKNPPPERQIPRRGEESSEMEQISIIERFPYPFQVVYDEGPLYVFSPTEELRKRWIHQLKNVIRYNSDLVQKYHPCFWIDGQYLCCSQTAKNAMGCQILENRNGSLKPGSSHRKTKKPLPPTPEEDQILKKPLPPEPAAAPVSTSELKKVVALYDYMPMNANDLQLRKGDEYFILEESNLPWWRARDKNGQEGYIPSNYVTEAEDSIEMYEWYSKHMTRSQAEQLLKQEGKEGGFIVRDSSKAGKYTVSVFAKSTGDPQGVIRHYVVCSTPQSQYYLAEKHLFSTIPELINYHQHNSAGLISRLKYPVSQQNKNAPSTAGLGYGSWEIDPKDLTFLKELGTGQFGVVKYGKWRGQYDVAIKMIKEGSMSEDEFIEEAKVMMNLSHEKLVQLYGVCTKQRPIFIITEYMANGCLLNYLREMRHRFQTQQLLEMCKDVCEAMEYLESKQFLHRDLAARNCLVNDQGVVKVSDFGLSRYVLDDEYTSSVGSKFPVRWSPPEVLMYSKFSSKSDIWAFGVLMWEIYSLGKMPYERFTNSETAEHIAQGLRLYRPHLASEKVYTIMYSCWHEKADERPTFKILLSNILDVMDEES

[12] = target: p38b MAPK (Homo sapiens (Human), UniProt Q15759); settings: 1 micromolar inhibitor concentration, read-out: percentage inhibition
[13] = target: PAK4 (Homo sapiens (Human), UniProt O96013); settings: 1 micromolar inhibitor concentration, read-out: percentage inhibition
[14] = target: IR (Homo sapiens (Human), UniProt P06213); settings: 1 micromolar inhibitor concentration, read-out: percentage inhibition
[15] = target: CDK9-Cyclin T1 (Homo sapiens (Human), UniProt P50750); settings: 1 micromolar inhibitor concentration, read-out: percentage inhibition
[16] = target: CK2 (Homo sapiens (Human), UniProt P68400); settings: 1 micromolar inhibitor concentration, read-out: percentage inhibition
[17] = target: SRPK1 (Homo sapiens (Human), UniProt Q96SB4); settings: 1 micromolar inhibitor concentration, read-out: percentage inhibition
[18] = target: PKCy (Homo sapiens (Human), UniProt P05129); settings: 1 micromolar inhibitor concentration, read-out: percentage inhibition
[19] = target: PRAK (Homo sapiens (Human), UniProt Q8IW41); settings: 1 micromolar inhibitor concentration, read-out: percentage inhibition
[20] = target: CK1δ (Homo sapiens (Human), UniProt P48730); settings: read-out: percentage inhibition
Description: The determination of protein kinase inhibition was performed at the International Centre for Kinase Profiling at the University of Dundee, UK. […] The ATP concentrations were at or below the calculated Km for ATP for each particular kinase.

[21] = target: PRK2 (Homo sapiens (Human), UniProt Q16513); settings: 1 micromolar inhibitor concentration, read-out: percentage inhibition
[22] = target: CAMK1 (Homo sapiens (Human), UniProt Q14012); settings: 1 micromolar inhibitor concentration, read-out: percentage inhibition
[23] = target: DAPK1 (Homo sapiens (Human), UniProt P53355); settings: 1 micromolar inhibitor concentration, read-out: percentage inhibition
[24] = target: CDK2-Cyclin A (Homo sapiens (Human), UniProt P24941); settings: 1 micromolar inhibitor concentration, read-out: percentage inhibition
[25] = target: EPH-A2 (Homo sapiens (Human), UniProt P29317); settings: 1 micromolar inhibitor concentration, read-out: percentage inhibition
[26] = target: MARK2 (Homo sapiens (Human), UniProt Q7KZI7); settings: 1 micromolar inhibitor concentration, read-out: percentage inhibition
[27] = target: TIE2 (Homo sapiens (Human), UniProt Q02763); settings: 1 micromolar inhibitor concentration, read-out: percentage inhibition
[28] = target: p38d MAPK (Homo sapiens (Human), UniProt O15264); settings: 1 micromolar inhibitor concentration, read-out: percentage inhibition
[29] = target: IRAK4 (Homo sapiens (Human), UniProt Q9NWZ3); settings: 1 micromolar inhibitor concentration, read-out: percentage inhibition
IRAK4, sequence (Q9NWZ3 whole entry, species assumed): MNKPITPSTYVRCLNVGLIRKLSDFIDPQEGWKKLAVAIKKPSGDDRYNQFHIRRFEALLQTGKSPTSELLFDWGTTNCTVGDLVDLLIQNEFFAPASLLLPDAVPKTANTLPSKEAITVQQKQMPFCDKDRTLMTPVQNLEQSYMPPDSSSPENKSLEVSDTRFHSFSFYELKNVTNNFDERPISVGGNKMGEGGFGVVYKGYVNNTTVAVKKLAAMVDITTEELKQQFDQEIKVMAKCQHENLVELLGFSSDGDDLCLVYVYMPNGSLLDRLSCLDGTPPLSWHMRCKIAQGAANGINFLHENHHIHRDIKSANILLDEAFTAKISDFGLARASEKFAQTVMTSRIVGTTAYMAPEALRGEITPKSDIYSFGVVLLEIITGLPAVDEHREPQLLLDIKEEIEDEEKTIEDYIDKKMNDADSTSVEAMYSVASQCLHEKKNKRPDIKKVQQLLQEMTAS

[30] = target: MAP4K5 (Homo sapiens (Human), UniProt Q9Y4K4); settings: 1 micromolar inhibitor concentration, read-out: percentage inhibition
[31] = target: TAO1 (Homo sapiens (Human), UniProt Q7L7X3); settings: 1 micromolar inhibitor concentration, read-out: percentage inhibition
[32] = target: GCK (Homo sapiens (Human), UniProt Q12851); settings: 1 micromolar inhibitor concentration, read-out: percentage inhibition
GCK, sequence (Q12851 whole entry): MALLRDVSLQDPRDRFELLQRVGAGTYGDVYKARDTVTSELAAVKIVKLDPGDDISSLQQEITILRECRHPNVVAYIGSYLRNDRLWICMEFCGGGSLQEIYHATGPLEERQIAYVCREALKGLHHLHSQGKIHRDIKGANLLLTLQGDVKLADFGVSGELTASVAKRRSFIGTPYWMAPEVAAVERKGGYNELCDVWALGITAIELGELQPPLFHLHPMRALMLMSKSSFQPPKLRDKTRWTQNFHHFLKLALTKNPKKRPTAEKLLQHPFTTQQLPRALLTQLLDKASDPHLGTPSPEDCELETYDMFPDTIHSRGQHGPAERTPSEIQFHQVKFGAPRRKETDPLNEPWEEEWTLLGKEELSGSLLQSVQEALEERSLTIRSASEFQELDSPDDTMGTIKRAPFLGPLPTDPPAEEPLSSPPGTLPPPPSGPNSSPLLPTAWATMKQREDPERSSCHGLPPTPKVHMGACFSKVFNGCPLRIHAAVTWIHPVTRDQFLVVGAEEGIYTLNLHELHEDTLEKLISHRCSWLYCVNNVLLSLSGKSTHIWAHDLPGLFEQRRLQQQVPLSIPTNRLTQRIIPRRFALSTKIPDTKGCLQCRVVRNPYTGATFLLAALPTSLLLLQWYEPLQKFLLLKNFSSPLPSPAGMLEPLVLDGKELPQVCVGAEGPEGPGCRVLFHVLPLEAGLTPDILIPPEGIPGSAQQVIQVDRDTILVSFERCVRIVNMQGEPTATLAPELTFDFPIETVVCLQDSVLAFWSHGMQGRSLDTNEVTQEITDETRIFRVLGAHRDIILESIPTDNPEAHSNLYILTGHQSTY

[33] = target: HIPK3 (Homo sapiens (Human), UniProt Q9H422); settings: 1 micromolar inhibitor concentration, read-out: percentage inhibition
[34] = target: CHK2 (Homo sapiens (Human), UniProt O96017); settings: 1 micromolar inhibitor concentration, read-out: percentage inhibition
CHK2, sequence (O96017 whole entry, species assumed): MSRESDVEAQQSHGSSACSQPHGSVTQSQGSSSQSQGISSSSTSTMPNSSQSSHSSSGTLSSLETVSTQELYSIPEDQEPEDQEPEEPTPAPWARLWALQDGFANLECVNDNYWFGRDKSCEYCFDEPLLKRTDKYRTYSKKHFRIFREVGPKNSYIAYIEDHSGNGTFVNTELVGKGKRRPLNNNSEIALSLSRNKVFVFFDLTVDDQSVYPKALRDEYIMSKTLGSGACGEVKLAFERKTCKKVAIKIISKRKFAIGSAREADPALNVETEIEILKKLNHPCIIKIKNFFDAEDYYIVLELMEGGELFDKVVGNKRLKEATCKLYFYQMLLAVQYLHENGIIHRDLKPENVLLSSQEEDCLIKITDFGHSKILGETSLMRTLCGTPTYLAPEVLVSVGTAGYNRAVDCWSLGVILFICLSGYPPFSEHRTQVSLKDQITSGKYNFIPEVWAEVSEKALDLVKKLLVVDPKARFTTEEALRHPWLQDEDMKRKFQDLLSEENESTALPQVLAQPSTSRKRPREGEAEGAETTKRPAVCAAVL

[35] = target: SIK2 (Homo sapiens (Human), UniProt Q9H0K1); settings: 1 micromolar inhibitor concentration, read-out: percentage inhibition
[36] = target: MNK2 (Homo sapiens (Human), UniProt Q9HBH9); settings: 1 micromolar inhibitor concentration, read-out: percentage inhibition
MNK2, sequence (Q9HBH9 whole entry, species assumed): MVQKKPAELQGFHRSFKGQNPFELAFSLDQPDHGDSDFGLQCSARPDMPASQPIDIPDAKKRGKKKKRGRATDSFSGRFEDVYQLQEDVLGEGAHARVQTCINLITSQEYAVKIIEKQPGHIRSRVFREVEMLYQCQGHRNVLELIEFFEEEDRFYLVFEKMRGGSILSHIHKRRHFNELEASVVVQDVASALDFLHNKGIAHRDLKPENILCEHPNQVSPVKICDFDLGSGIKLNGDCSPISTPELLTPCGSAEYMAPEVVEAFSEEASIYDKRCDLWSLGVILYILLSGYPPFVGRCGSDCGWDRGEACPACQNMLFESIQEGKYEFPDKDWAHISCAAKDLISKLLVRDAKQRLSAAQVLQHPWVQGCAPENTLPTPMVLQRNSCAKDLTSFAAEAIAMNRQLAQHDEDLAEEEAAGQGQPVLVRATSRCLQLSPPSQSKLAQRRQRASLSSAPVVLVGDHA

[37] = target: RSK1 (Homo sapiens (Human), UniProt Q15418); settings: 1 micromolar inhibitor concentration, read-out: percentage inhibition
[38] = target: WNK1 (Homo sapiens (Human), UniProt Q9H4A3); settings: 1 micromolar inhibitor concentration, read-out: percentage inhibition
[39] = target: PIM2 (Homo sapiens (Human), UniProt Q9P1W9); settings: 1 micromolar inhibitor concentration, read-out: percentage inhibition
PIM2, sequence (Q9P1W9 whole entry, species assumed): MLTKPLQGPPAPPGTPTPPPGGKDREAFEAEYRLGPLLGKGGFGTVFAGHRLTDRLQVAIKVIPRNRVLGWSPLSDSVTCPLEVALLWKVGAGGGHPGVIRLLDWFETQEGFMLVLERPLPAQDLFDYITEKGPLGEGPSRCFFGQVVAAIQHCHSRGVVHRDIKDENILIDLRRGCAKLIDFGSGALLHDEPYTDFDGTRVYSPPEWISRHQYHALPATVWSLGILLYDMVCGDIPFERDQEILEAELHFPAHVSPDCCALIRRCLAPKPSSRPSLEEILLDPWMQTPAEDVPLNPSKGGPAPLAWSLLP

[40] = target: TSSK1 (Homo sapiens (Human), UniProt Q9BXA7); settings: 1 micromolar inhibitor concentration, read-out: percentage inhibition
[41] = target: TTBK2 (Homo sapiens (Human), UniProt Q6IQ55); settings: 1 micromolar inhibitor concentration, read-out: percentage inhibition
TTBK2, sequence (Q6IQ55 whole entry, species assumed): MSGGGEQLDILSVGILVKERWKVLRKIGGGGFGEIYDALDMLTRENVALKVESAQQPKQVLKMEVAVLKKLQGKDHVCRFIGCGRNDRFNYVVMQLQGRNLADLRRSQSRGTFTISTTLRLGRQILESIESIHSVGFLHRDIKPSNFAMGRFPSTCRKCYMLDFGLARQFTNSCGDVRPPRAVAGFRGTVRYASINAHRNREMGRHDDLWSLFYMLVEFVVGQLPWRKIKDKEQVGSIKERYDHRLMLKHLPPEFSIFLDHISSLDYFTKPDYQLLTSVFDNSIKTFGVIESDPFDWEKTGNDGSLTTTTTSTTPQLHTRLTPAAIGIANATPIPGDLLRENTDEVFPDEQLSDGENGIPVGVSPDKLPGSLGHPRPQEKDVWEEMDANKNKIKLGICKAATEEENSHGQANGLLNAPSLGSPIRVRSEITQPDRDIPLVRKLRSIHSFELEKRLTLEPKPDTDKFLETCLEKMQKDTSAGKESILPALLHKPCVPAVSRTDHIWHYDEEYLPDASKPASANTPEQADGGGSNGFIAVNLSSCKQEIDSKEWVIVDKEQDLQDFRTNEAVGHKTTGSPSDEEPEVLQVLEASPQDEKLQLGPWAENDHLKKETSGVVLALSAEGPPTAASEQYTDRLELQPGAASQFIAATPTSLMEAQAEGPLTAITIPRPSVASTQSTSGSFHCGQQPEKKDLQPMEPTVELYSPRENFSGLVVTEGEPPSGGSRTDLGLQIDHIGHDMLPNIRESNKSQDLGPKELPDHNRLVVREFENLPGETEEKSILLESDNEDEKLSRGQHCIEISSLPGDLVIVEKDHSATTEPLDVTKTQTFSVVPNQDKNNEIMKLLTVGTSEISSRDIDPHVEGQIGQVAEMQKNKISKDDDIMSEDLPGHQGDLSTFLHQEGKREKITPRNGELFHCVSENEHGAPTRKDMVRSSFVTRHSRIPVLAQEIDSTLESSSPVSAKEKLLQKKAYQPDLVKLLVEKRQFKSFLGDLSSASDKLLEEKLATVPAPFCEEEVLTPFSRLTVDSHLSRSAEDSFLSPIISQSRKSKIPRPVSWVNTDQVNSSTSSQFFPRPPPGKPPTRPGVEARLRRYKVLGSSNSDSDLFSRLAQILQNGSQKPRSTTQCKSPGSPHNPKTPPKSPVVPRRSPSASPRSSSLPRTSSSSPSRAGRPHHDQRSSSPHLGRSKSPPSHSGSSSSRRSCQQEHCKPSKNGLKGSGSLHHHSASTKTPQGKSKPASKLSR

MKK1, sequence (Q02750 whole entry, species assumed): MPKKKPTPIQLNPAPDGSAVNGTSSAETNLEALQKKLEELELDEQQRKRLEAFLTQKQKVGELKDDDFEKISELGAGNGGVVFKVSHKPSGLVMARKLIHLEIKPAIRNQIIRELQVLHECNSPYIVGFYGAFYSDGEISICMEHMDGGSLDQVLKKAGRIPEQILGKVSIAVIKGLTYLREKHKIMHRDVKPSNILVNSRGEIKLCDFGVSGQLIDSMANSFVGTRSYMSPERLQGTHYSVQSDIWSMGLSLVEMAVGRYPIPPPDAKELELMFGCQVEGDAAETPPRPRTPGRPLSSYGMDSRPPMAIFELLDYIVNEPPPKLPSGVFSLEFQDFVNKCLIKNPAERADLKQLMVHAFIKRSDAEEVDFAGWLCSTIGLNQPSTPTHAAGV

`COc1ccc2sc(-c3cncc(NC(C)=O)c3)nc2c1` [4-93, N-(5-(5-Methoxybenzo[d]thiazol-2-yl)pyridin-3-yl)acetamide] gave an inhibition at 1 µM [1] of 0%, an inhibition at 1 µM [2] of 0% and an inhibition at 1 µM [3] of 0%. It also gave an inhibition at 1 µM [4] of 0%, an inhibition at 1 µM [5] of 0% and an inhibition at 1 µM [6] of 0%. It also gave an inhibition at 1 µM [7] of 0%, an inhibition at 1 µM [8] of 1% and an inhibition at 1 µM [9] of 0%. It also gave an inhibition at 1 µM [10] of 0%, an inhibition at 1 µM [11] of 8% and an inhibition at 1 µM [12] of 0%. For the same compound, the inhibition at 1 µM [13] was 0%, the inhibition at 1 µM [14] was 0% and the inhibition at 1 µM [15] was 0%. It also gave an inhibition at 1 µM [16] of 0%, an inhibition at 1 µM [17] of 0% and an inhibition at 1 µM [18] of 0%. It also gave an inhibition at 1 µM [19] of 0%, an inhibition at 1 µM [20] of 1% and an inhibition at 1 µM [21] of 0%. It also gave an inhibition at 1 µM [22] of 0%, an inhibition at 1 µM [23] of 0% and an inhibition at 1 µM [24] of 0%. The inhibition at 1 µM [25] was 0%, the inhibition at 1 µM [26] was 0% and the inhibition at 1 µM [27] was 0%. For the same compound, the inhibition at 1 µM [28] was 0%, the inhibition at 1 µM [29] was 12% and the inhibition at 1 µM [30] was 18%. The inhibition at 1 µM [31] was 0%, the inhibition at 1 µM [32] was 0% and the inhibition at 1 µM [33] was 0%. For the same compound, the inhibition at 1 µM [34] was 0%, the inhibition at 1 µM [35] was 0% and the inhibition at 1 µM [36] was 0%. For the same compound, the inhibition at 1 µM [37] was 1%, the inhibition at 1 µM [38] was 0% and the inhibition at 1 µM [39] was 0%. The inhibition at 1 µM [40] was 0% and the inhibition at 1 µM [41] was 0%.
For `CS(=O)(=O)Nc1cncc(-c2nc3cc(O)ccc3s2)c1` [4-99, N-(5-(5-Hydroxybenzo[d]thiazol-2-yl)pyridin-3-yl)methanesulfonamide], the inhibition at 1 µM [1] was 0%, the inhibition at 1 µM [2] was 0% and the inhibition at 1 µM [3] was 0%. For the same compound, the inhibition at 1 µM [4] was 0%, the inhibition at 1 µM [5] was 0% and the inhibition at 1 µM [6] was 0%. For the same compound, the inhibition at 1 µM [7] was 0%, the inhibition at 1 µM [8] was 0% and the inhibition at 1 µM [9] was 0%. The inhibition at 1 µM [10] was 0%, the inhibition at 1 µM [11] was 0% and the inhibition at 1 µM [12] was 0%. The inhibition at 1 µM [13] was 0%, the inhibition at 1 µM [14] was 0% and the inhibition at 1 µM [15] was 0%. The inhibition at 1 µM [16] was 6%, the inhibition at 1 µM [17] was 0% and the inhibition at 1 µM [18] was 0%. For the same compound, the inhibition at 1 µM [19] was 0%, the inhibition at 1 µM ([20]; CK1δ, 1 micromolar inhibitor concentration) was 8% and the inhibition at 1 µM [21] was 0%. The inhibition at 1 µM [22] was 0%, the inhibition at 1 µM [23] was 0% and the inhibition at 1 µM [24] was 6%. It also gave an inhibition at 1 µM [25] of 0%, an inhibition at 1 µM [26] of 0% and an inhibition at 1 µM [27] of 3%. It also gave an inhibition at 1 µM [28] of 0%, an inhibition at 1 µM [29] of 8% and an inhibition at 1 µM [30] of 0%. It also gave an inhibition at 1 µM [31] of 0%, an inhibition at 1 µM [32] of 0% and an inhibition at 1 µM [33] of 0%. For the same compound, the inhibition at 1 µM [34] was 0%, the inhibition at 1 µM [35] was 0% and the inhibition at 1 µM [36] was 0%. For the same compound, the inhibition at 1 µM [37] was 0%, the inhibition at 1 µM [38] was 0% and the inhibition at 1 µM [39] was 0%. It also gave an inhibition at 1 µM [40] of 0% and an inhibition at 1 µM [41] of 0%.
